In experiment [1] the target is T1, Tyrosine-protein phosphatase non-receptor type 11 (Homo sapiens, UniProt Q06124).
T1 sequence (Q06124 whole entry): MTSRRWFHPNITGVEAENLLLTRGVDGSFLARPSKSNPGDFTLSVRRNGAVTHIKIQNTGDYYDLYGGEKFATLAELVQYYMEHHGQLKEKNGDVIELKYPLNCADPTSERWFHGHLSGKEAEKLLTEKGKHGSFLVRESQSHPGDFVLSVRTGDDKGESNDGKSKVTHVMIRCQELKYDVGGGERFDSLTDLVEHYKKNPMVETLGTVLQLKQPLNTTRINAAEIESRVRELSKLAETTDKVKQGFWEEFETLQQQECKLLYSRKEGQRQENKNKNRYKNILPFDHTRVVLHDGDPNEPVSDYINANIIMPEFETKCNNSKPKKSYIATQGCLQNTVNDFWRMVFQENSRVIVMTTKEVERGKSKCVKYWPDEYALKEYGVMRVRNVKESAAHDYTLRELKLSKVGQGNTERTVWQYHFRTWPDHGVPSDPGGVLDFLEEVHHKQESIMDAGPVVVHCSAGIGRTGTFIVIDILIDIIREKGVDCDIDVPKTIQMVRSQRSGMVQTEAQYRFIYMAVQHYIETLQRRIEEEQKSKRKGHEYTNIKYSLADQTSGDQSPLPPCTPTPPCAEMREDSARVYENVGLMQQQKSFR
As to the kind of experiment: Inhibition of SHP2 ( 1 to 525 residues) (unknown origin).

The target in experiment [2] is T2, Tyrosine-protein phosphatase non-receptor type 6 (Homo sapiens, UniProt P29350). As to the kind of experiment: Inhibition of SHP1 (unknown origin).
Experiment [3] deals with T3, Tyrosine-protein phosphatase non-receptor type 1 (Homo sapiens, UniProt P18031).
T3 sequence (P18031 whole entry): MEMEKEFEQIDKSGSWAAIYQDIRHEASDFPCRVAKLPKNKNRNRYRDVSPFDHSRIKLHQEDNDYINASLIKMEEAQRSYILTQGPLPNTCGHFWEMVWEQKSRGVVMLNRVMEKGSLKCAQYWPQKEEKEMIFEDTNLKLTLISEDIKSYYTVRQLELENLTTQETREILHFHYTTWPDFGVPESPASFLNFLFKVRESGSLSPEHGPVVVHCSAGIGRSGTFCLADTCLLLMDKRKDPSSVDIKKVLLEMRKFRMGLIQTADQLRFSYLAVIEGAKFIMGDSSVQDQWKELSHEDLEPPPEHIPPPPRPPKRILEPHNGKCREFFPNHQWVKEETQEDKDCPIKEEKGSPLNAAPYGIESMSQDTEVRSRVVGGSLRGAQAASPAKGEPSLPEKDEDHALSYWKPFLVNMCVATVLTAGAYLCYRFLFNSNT
As to the kind of experiment: Inhibition of PTP1B (unknown origin).

Experiment [4] has as its target T3, Tyrosine-protein phosphatase non-receptor type 1. As to the kind of experiment: Inhibition of recombinant GST-fused human PTP1B (1 to 435 residues) using DiFMUP as substrate incubated for 30 mins by fluorescence based assay.
Experiment [5] has as its target T2, Tyrosine-protein phosphatase non-receptor type 6.
Description: Inhibition of recombinant GST-fused human SHP1 (205 to 597 residues) using DiFMUP as substrate incubated for 30 mins by fluorescence based assay
Experiment [6] concerns the target T1, Tyrosine-protein phosphatase non-receptor type 11.
Description: Inhibition of SHP2 (unknown origin)

Usually IC50 stands for the concentration that gives 50% inhibition.

Each structure is given as a SMILES string.

T2 sequence (P29350 whole entry): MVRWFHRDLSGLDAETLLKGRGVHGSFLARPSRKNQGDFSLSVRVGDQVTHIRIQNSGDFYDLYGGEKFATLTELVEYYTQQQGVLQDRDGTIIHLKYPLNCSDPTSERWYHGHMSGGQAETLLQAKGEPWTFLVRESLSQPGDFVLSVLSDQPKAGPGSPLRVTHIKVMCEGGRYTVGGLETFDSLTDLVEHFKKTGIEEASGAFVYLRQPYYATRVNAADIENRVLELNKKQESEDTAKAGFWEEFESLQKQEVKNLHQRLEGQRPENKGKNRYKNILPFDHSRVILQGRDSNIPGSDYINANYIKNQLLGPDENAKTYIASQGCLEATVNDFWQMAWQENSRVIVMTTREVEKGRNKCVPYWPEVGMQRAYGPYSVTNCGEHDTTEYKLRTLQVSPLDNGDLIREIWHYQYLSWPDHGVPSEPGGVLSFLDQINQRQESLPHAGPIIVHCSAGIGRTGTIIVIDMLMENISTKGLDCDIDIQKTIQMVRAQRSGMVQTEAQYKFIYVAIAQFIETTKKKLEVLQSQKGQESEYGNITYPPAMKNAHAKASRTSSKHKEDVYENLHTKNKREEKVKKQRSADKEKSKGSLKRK

In experiment [1], `COc1cccc(-c2nnc3n(Cc4ccccc4Cl)c(=O)c4ccccc4n23)c1O` yielded an IC50 of 60 µM. For `O=C1/C(=N\Nc2ccc(S(=O)(=O)O)cc2)C(c2ccc([N+](=O)[O-])cc2)=NN1c1ccccc1`, the IC50 in experiment [2] came to 30 µM; in experiment [3], 19 µM. Take `O=S(=O)(O)c1ccc2cc(/N=N/c3cc(S(=O)(=O)O)c4cccnc4c3O)ccc2c1`: the IC50 in experiment [4] was determined as 1.69 µM; in experiment [5], 0.355 µM. With `O=C1Nc2ccc(S(=O)(=O)O)cc2/C1=N/Nc1ccccc1[N+](=O)[O-]`, in experiment [6], the IC50 was determined as 0.8 µM.
